Experimental data: US20260132172A1, “IN VITRO BIOSYNTHESIS OF DIVERSE PYRIDINE-BASED MACROCYCLIC PEPTIDES” (The Brd. of Trustees of the Univ. of Illinois, priority 2022, published 2026)

Each substance was assayed on MroD (assay: MroD [4+2] macrocyclization of didehydrated MroA2 variants, MALDI-TOF-MS). Conditions: MroA2 multi-site variants; qualitatively estimated from leader peptide vs remaining didehydrated intermediate.
Format: biochemical, Micromonospora rosaria
Parameters: key: +++ indicates enzyme activity roughly equal to wild-type MroA2; ++ indicates modestly reduced enzyme activity; + indicates severely reduced enzyme activity; − indicates no detectable enzyme activity (no macrocycles observed)
Experimental: After incubation, the enzyme reaction (18 μL) was split into two equal parts. One part was treated with MBP-MroD such that the final concentration of MBP-MroD is 3 μM, and the other part was added the same volume but with buffer lacking MBP-MroD (50 mM HEPES, 300 mM NaCl, 2.5% glycerol, 0.5 mM TCEP). The reaction further proceeded for 1.5 h at room temperature. All reaction mixture was then desalted with solid-phase extraction using Ziptip with 0.6 μL C18 resin (EMD Millipore) and crystallized on an MTP384 steel target plate using either saturated sinapic acid or 50 mg/mL Super DHB [dissolved in 60% acetonitrile and 0.1% trifluoroacetic acid (TFA)] as the matrix. The crystallized spots were then analyzed using MALDI-TOF-MS (Bruker Ultraflex). The external standard for MALDI-TOF-MS analysis is ProteoMass Peptide and Protein MALDI-MS Calibration Kit (Sigma).

Row | Substance | Relative MroD conversion
1 | SGFIRNASWLI [Number 31] | ++
2 | SGGWRVAHSWLI [Number 45] | +
3 | SGPRANYSWLI [Number 30] | ++
4 | SGHAAHSWLI [Number 7] | +++
5 | SGREFARSWLI [Number 35-N7R] | +++
6 | SGVKFSWLI [Number 3] | +
7 | SGQGRNVSWLI [Number 24] | +
8 | SGRYAGRSWLI [Number 39-W7R] | +++
9 | SGYRRRAGSWLI [Number 50] | +++
10 | SGKLGFSWLI [Number 10] | +
11 | SGFDRAGHSWLI [Number 46] | +
12 | SGQGRNRSWLI [Number 24-V7R] | +++
13 | SGGYRPRSWLI [Number 38-H7R] | +++
14 | SGQYKFRSWLI [Number 48] | +++
15 | SGIKNDASWLI [Number 23] | +++
16 | SGMPRGSWLI [Number 8] | +++
17 | SGQPQRLGSWLI [Number 42] | +++
18 | SGAGLNRSWLI [Number 17] | +++
19 | SGRGYALSWLI [Number 25] | ++
20 | SGNMHPGKSWLI [Number 40] | ++

Row | Substance | Relative MroD conversion
21 | SGLGHSWLI [Number 1] | +
22 | SGPKRWGHSWLI [Number 51] | +
23 | SGRVALEASWLI [Number 37] | +
24 | SGGRENSWLI [Number 11] | ++
25 | SGDDRDGGSWLI [Number 27] | +
26 | SGDGWRSWLI [Number 18] | +++
27 | SGQDVANRSWLI [Number 43] | +++
28 | SGMARYSWLI [Number 26] | +
29 | SGREFANSWLI [Number 35] | +
30 | SGAWRSWLI [Number 6] | +++
31 | SGHDNQARSWLI [Number 49] | +++
32 | SGEMHQHSWLI [Number 41] | +
33 | SGYANRAGSWLI [Number 33] | +++
34 | SGNAWIKSWLI [Number 32] | +++
35 | SGERGMGKSWLI [Number 34] | +++
36 | SGRYHSWLI [Number 12] | +++
37 | SGKALERSWLI [Number 29-F7R] | ++
38 | SGLKFYHSWLI [Number 44] | +++
39 | SGAQQHSWLI [Number 13] | +++

These substances were tested on MroB/C (assay: MroB/C dehydration (Dha formation) of MroA precursor peptide variants, MALDI-TOF-MS / LC-MS/MS). Conditions: MroA2 multi-site variants, in vitro translated, MALDI-TOF-MS.
Format: biochemical, Micromonospora rosaria
Experimental: In a 0.65 mL protein low-binding Eppendorf tube placed on ice. 0.75 μL of purified mroA variant template DNA was mixed with 0.75 μL of Solution B and 1 μL of Solution A of PURExpress In vitro Protein Synthesis Kit (E6800L) purchased from NEB (total volume of reaction is 2.5 μL). The translation reactions were performed at 37° C. for 1 h on an aluminum block.
For a full MroBCD substrate scope investigation, a total translation volume for each variant of 7.5 μL was performed. 1.5 μL of 90 mM iodoacetamide (IAA) was added to quench dithiothreitol (DTT) in the translation reaction mixture, a thiol-based nucleophile that can react with electrophilic dehydroalanines generated from MroBC-catalyzed dehydration assays. The translation product was split into two parts with these corresponding volumes: 3 μL and 6 μL. In the 6 μL part. 10.2 μL of the enzyme mix containing enzymes and cofactors was added along with 1.8 μL 90 mM ATP (pH 7.5), which was used to initiate the reaction. The enzyme mix was made by adding these components in the following order: HEPES pH 7.5, MgCl2, glutamate, T. bispora tRNA^Glu (CUC), thermostable inorganic pyrophosphatase (TIPP), TEV (L56V/S135G/S219V) (w/w ratio with a total amount of MBP-tagged protein=1:10), MBP-MroB, MBP-MroC, and T. bispora GluRS. The enzyme mix was incubated 25 min at room temperature before adding to the translation product to facilitate in situ TEV-catalyzed cleavage of MBP from MBP-MroB and MBP-MroC. The enzymatic reaction proceeded for 1 h at room temperature. Overall, the concentration of components in the 18 μL reaction mix is as follows: 50 mM HEPES pH 7.5, 5 mM MgCl2. L-glutamate 1 mM, 3 μM T. bispora tRNA^Glu, 1 μM T. bispora GluRS, 2 μM MBP-MroB, 2 μM MBP-MroC, […], 0.027 U/μL TIPP, and 5 mM IAA. In addition, the 3 μL part was incubated with the same buffer lacking enzymes and tRNA as a translation control.
The reactions were performed similarly as described above, with 10 μM substrate concentration and without IAA. The total volume of each reaction is 100 μL.
Enzymatic assays were desalted using solid-phase extraction prior to LC-ESI-MS/MS analysis. Specifically, except for the thiazol(in)es-containing pyritide (which utilize 8 mg Pierce C18 Spin Column), the samples were applied to Toptip C18 (10-200 μL, Glygen Corp) wetted with 50 μL of 80% acetonitrile (0.1% formic acid) and equilibrate with 150 μL of 0.1% formic acid following the manufacturer instructions. The C18 columns (tips) are then washed with 150 μL of 0.1% formic acid and eluted using 100 μL 80% acetonitrile (0.1% formic acid). The samples were then dried utilizing lyophilization and redissolved in 25% acetonitrile (80 μL for enzymatic assays of in vitro-translated substrates and 200 μL for enzymatic assays of purified substrates). Then 20 μL of each sample was injected into an Agilent AdvanceBio Peptide Plus column (2.1×150 mm, 2.7 μm) equipped with an Agilent 6545B Q-TOF interfaced with an Agilent 1290 Infinity II LC system. Mobile phase solvents were composed of H2O, 0.1% formic acid (Solvent A), and acetonitrile 0.1% formic acid (Solvent B). The column compartment was maintained at 35° C. during all experiments. The column was equilibrated with 5 column volumes of starting mobile phase (95% A and 5% B) between injections. The gradient of all LC runs was as follows: 0-2 min: 95% A 5% B, 2-3 min: 70% A 30% B, 3-18 min: 20% A 80% B, 18-20 min: 5% A 95% B. The samples were run to waste for the first 3 min before applying to the mass spectrometer. Mass range was set from 100 to 1700 m/z (except for 412MroA1 W7G: 100-3000 m/z). MS parameters were as follows: gas, 320° C. at 8 L/min: nebulizer, 35 psig: nozzle voltage, 1000 V: sheath gas, 350° C. at 11 L/min: capillary, 3500 V: fragmentor, 125 V: skimmer, 65 V: MS scan rate (10) spectra/s): MS-MS scan rate (5 spectra/s); and isolation width (MS/MS), 1.3 m z. […]

Row | Substance | Dha formation
40 | SGFIRNASWLI [Number 31] | 2 Dha
41 | SGGWRVAHSWLI [Number 45] | 2 Dha
42 | SGPRANYSWLI [Number 30] | 2 Dha
43 | SGHAAHSWLI [Number 7] | 2 Dha
44 | SGREFARSWLI [Number 35-N7R] | 2 Dha
45 | SGVKFSWLI [Number 3] | 2 Dha
46 | SGQGRNVSWLI [Number 24] | 2 Dha
47 | SGRYAGRSWLI [Number 39-W7R] | 2 Dha
48 | SGYRRRAGSWLI [Number 50] | 2 Dha
49 | SGKLGFSWLI [Number 10] | 2 Dha
50 | SGFDRAGHSWLI [Number 46] | 2 Dha
51 | SGQGRNRSWLI [Number 24-V7R] | 2 Dha
52 | SGGYRPRSWLI [Number 38-H7R] | 2 Dha
53 | SGQYKFRSWLI [Number 48] | 2 Dha
54 | SGIKNDASWLI [Number 23] | 2 Dha
55 | SGMPRGSWLI [Number 8] | 2 Dha
56 | SGQPQRLGSWLI [Number 42] | 2 Dha
57 | SGKGKQASWLI [Number 19] | 2 Dha
58 | SGAGLNRSWLI [Number 17] | 2 Dha
59 | SGRGYALSWLI [Number 25] | 2 Dha
60 | SGNMHPGKSWLI [Number 40] | 2 Dha

Row | Substance | Dha formation
61 | SGDAMRWASWLI [Number 53] | 2 Dha
62 | SGLGHSWLI [Number 1] | 2 Dha
63 | SGPKRWGHSWLI [Number 51] | 2 Dha
64 | SGRVALEASWLI [Number 37] | 2 Dha
65 | SGGRENSWLI [Number 11] | 2 Dha
66 | SGDDRDGGSWLI [Number 27] | Mix of 1, 2
67 | SGDGWRSWLI [Number 18] | 2 Dha
68 | SGQDVANRSWLI [Number 43] | 2 Dha
69 | SGMARYSWLI [Number 26] | 2 Dha
70 | SGREFANSWLI [Number 35] | 2 Dha
71 | SGAWRSWLI [Number 6] | 2 Dha
72 | SGHDNQARSWLI [Number 49] | 2 Dha
73 | SGEMHQHSWLI [Number 41] | Mix of 1, 2
74 | SGYANRAGSWLI [Number 33] | 2 Dha
75 | SGNAWIKSWLI [Number 32] | 2 Dha
76 | SGERGMGKSWLI [Number 34] | 2 Dha
77 | SGRYHSWLI [Number 12] | 2 Dha
78 | SGKALERSWLI [Number 29-F7R] | Mix of 1,2
79 | SGLKFYHSWLI [Number 44] | 2 Dha
80 | SGAQQHSWLI [Number 13] | 2 Dha

Same assay, conditions: MroBC assays followed by LC-MS/MS analysis, result in words

Row | Substance | dehydration by MroBC (site and extent)
81 | S7G/W8G: MroA2 variant (MRRRGSMDNVVTEAAEFADLDIVDLDLAVDEELAALSVGGLGNTEVGASGFFGRGGLI) | completely dehydrated at Ser1
82 | MroA2-S1G/W8G: MroA2 variant (MRRRGSMDNVVTEAAEFADLDIVDLDLAVDEELAALSVGGLGNTEVGAGGFFGRSGLI) | inefficiently dehydrated at Ser7
83 | S7G/110G: MroA2 variant (MRRRGSMDNVVTEAAEFADLDIVDLDLAVDEELAALSVGGLGNTEVGASGFFGRGWLG) | completely dehydrated at Ser1
84 | MroA2-S7G: MroA2 variant (MRRRGSMDNVVTEAAEFADLDIVDLDLAVDEELAALSVGGLGNTEVGASGFFGRGWLI) | went to completion
85 | MroA2-SIG: MroA2 variant (MRRRGSMDNVVTEAAEFADLDIVDLDLAVDEELAALSVGGLGNTEVGAGGFFGRSWLI) | went to completion
